One test addresses orexin-1 (Homo sapiens (Human), UniProt O43613). The experiment in a line: Intracellular calcium measurement (FLIPR), CHO cells expressing human orexin-1 receptor, 3 nM orexin-A. The format is cell-based. Conditions: read-out: IC50 OX1. In a few lines:
(§1)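 Fluo-4 AM-loaded CHO cells; antagonist preincubation 120 min, then 3 nM orexin-A (final) in HBSS/0.1% BSA/20 mM HEPES. FLIPR read at 1 s intervals; peak height vs. agonist-plus-vehicle control → IC50.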
On the technique in general: Calcium flux is commonly read through the fluorescence of an indicator in the cells.

Another test concerns the target human orexin-2 receptor (Homo sapiens (Human), UniProt O43614). As to the kind of experiment: Intracellular calcium measurement (FLIPR), CHO cells expressing human orexin-2 receptor, 3 nM orexin-A. It is filed as cell-based. Conditions: read-out: IC50 OX2. In a few lines: as §1
Setting [1] is: CHO cells expressing human orexin-1 receptor, FLIPR, 3 nM orexin-A, geometric mean if determined several times.
[2] abbreviates: CHO cells expressing human orexin-2 receptor, FLIPR, 3 nM orexin-A, geometric mean if determined several times.

Structures are written as SMILES. Like-named read-outs stand apart in the source and are kept apart here.

This note sets out measurements from patent US9493446B2, “Orexin receptor antagonists which are [ortho bi-(hetero-)aryl]-[2-(meta bi-(hetero-)aryl)-pyrrolidin-1-yl]-methanone derivatives” (Actelion Pharmaceuticals Ltd, priority 2012, dated 2016).

What is called IC50 is the midpoint of a concentration-inhibition curve.

Chain of orexin-1 (O43613 whole entry): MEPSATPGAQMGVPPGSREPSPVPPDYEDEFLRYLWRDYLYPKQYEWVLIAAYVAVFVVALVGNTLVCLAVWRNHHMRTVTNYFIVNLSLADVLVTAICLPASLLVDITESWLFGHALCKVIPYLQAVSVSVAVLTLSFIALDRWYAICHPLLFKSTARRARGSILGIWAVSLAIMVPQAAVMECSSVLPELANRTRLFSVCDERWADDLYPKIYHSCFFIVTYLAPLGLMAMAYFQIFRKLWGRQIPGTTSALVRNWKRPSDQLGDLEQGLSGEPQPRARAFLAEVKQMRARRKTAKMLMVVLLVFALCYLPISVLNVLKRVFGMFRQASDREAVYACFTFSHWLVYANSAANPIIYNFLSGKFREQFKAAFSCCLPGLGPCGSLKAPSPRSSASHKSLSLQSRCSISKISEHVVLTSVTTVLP
Chain of human orexin-2 receptor (O43614 whole entry): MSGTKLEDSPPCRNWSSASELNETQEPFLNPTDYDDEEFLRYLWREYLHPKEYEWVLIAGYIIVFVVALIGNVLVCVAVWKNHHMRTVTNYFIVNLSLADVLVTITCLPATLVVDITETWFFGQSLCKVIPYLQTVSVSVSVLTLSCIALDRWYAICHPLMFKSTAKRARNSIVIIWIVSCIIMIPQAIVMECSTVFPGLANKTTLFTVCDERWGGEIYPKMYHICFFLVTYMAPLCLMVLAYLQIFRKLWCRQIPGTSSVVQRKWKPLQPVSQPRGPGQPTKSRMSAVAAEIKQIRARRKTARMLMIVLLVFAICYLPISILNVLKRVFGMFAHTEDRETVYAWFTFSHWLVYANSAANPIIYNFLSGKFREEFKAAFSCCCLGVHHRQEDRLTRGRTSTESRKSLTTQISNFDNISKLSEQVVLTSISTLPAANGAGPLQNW

Consider `Cc1ccc(C(=O)N2CCC[C@H]2c2noc(-c3ccccc3OC(F)(F)F)n2)c(-n2nccn2)c1` [compound 374, (4-Methyl-2-[1,2,3]triazol-2-yl-phenyl)-{(S)-2-[5-(2-trifluoromethoxy-phenyl)-[1,2,4]oxadiazol-3-yl]-pyrrolidin-1-yl}-methanone], for which the values for the IC50 on orexin-1 (setting [1]) and at human orexin-2 receptor (setting [2]) were 18 nM and 11 nM, respectively.
On the same counts, the results for `COc1cc(C(=O)N2CCC[C@H]2c2noc(-c3ccccc3OC(F)(F)F)n2)c(-n2nccn2)cc1Cl` [compound 375] are 67 nM and 6 nM.
Turning to `O=C(c1ccc(Cl)cc1-n1nccn1)N1CCC[C@H]1c1noc(-c2ccccc2OC(F)(F)F)n1` [compound 376], the values for the IC50 on orexin-1 and at human orexin-2 receptor (setting [2]) were 23 nM and 11 nM, respectively.
On to `O=C(c1cc(Cl)ccc1-n1nccn1)N1CCC[C@H]1c1noc(-c2ccccc2OC(F)(F)F)n1` [compound 377], for which the IC50 on orexin-1 (setting [1]) came to 68 nM; on human orexin-2 receptor (setting [2]), 15 nM.
On to `COc1c(F)cccc1-c1nc([C@@H]2CCCN2C(=O)c2ccc(Cl)cc2-n2nccn2)no1` [compound 378], for which the values for the IC50 on orexin-1 (setting [1]) and on human orexin-2 receptor were 30 nM and 2 nM, respectively.
For `Cc1c(F)cccc1-c1nc([C@@H]2CCCN2C(=O)c2ccc(Cl)cc2-n2nccn2)no1` [compound 379], the values for the IC50 on orexin-1 (setting [1]) and at human orexin-2 receptor (setting [2]) were 52 nM and 5 nM, respectively.
On the same counts, the results for `COc1ccc(C)cc1-c1nc([C@@H]2CCCN2C(=O)c2ccc(Cl)cc2-n2nccn2)no1` [compound 381] are 136 nM and 28 nM.
The corresponding values for `COc1cc(C)cc(-c2nc([C@@H]3CCCN3C(=O)c3cc(C)c(C)cc3-n3nccn3)no2)c1` [compound 382, (4,5-Dimethyl-2-[1,2,3]triazol-2-yl-phenyl)-{(S)-2-[5-(3-methoxy-5-methyl-phenyl)-[1,2,4]oxadiazol-3-yl]-pyrrolidin-1-yl}-methanone] are 10 nM and 4 nM.
On the same counts, the results for `COc1ccc(C)c(-c2nc([C@@H]3CCCN3C(=O)c3cc(C)c(C)cc3-n3nccn3)no2)c1` [compound 383, (4,5-Dimethyl-2-[1,2,3]triazol-2-yl-phenyl)-{(S)-2-[5-(5-methoxy-2-methyl-phenyl)-[1,2,4]oxadiazol-3-yl]-pyrrolidin-1-yl}-methanone] are 30 nM and 4 nM.
As to `COc1ccc(C)cc1-c1nc([C@@H]2CCCN2C(=O)c2cc(C)c(C)cc2-n2nccn2)no1` [compound 384, (4,5-Dimethyl-2-[1,2,3]triazol-2-yl-phenyl)-{(S)-2-[5-(2-methoxy-5-methyl-phenyl)-[1,2,4]oxadiazol-3-yl]-pyrrolidin-1-yl}-methanone], the IC50 on orexin-1 (setting [1]) is 22 nM; on human orexin-2 receptor (setting [2]), 2 nM.
The corresponding values for `COc1cc(C)cc(-c2nc([C@@H]3CCCN3C(=O)c3cc(OC)c(C)cc3-n3nccn3)no2)c1` [compound 385, {(S)-2-[5-(3-Methoxy-5-methyl-phenyl)-[1,2,4]oxadiazol-3-yl]-pyrrolidin-1-yl}-(5-methoxy-4-methyl-2-[1,2,3]triazol-2-yl-phenyl)-methanone] are 26 nM and 8 nM.
Turning to `COc1ccc(C)c(-c2nc([C@@H]3CCCN3C(=O)c3cc(OC)c(C)cc3-n3nccn3)no2)c1` [compound 386, {(S)-2-[5-(5-Methoxy-2-methyl-phenyl)-[1,2,4]oxadiazol-3-yl]-pyrrolidin-1-yl}-(5-methoxy-4-methyl-2-[1,2,3]triazol-2-yl-phenyl)-methanone], the IC50 on orexin-1 (setting [1]) is 118 nM; on human orexin-2 receptor (setting [2]), 7 nM.
The corresponding values for `COc1cc(C(=O)N2CCC[C@H]2c2noc(-c3cc(C)ccc3OC)n2)c(-n2nccn2)cc1C` [compound 387, {(S)-2-[5-(2-Methoxy-5-methyl-phenyl)-[1,2,4]oxadiazol-3-yl]-pyrrolidin-1-yl}-(5-methoxy-4-methyl-2-[1,2,3]triazol-2-yl-phenyl)-methanone] are 57 nM and 3 nM.
The corresponding values for `CCc1ccccc1-c1nc([C@@H]2CCCN2C(=O)c2cc(C)ccc2-n2nccn2)no1` [compound 389, {(S)-2-[5-(2-Ethyl-phenyl)-[1,2,4]oxadiazol-3-yl]-pyrrolidin-1-yl}-(5-methyl-2-[1,2,3]triazol-2-yl-phenyl)-methanone] are 35 nM and 15 nM.
As for `Cc1ccc(-n2nccn2)c(C(=O)N2CCC[C@H]2c2noc(-c3cc(C)ccc3C)n2)c1` [compound 390, {(S)-2-[5-(2,5-Dimethyl-phenyl)-[1,2,4]oxadiazol-3-yl]-pyrrolidin-1-yl}-(5-methyl-2-[1,2,3]triazol-2-yl-phenyl)-methanone], the IC50 was 73 nM at orexin-1 (setting [1]) and 6 nM on human orexin-2 receptor (setting [2]).
On the same counts, the results for `Cc1ccc(C(=O)N2CCC[C@H]2c2noc(-c3cccc(C)c3C)n2)c(-n2nccn2)c1` [compound 391, {(S)-2-[5-(2,3-Dimethyl-phenyl)-[1,2,4]oxadiazol-3-yl]-pyrrolidin-1-yl}-(4-methyl-2-[1,2,3]triazol-2-yl-phenyl)-methanone] are 68 nM and 14 nM.
On the same counts, the results for `CCc1ccccc1-c1nc([C@@H]2CCCN2C(=O)c2ccc(C)cc2-n2nccn2)no1` [compound 392, {(S)-2-[5-(2-Ethyl-phenyl)-[1,2,4]oxadiazol-3-yl]-pyrrolidin-1-yl}-(4-methyl-2-[1,2,3]triazol-2-yl-phenyl)-methanone] are 17 nM and 17 nM.
The corresponding values for `Cc1ccc(C)c(-c2nc([C@@H]3CCCN3C(=O)c3ccc(C)cc3-n3nccn3)no2)c1` [compound 393, {(S)-2-[5-(2,5-Dimethyl-phenyl)-[1,2,4]oxadiazol-3-yl]-pyrrolidin-1-yl}-(4-methyl-2-[1,2,3]triazol-2-yl-phenyl)-methanone] are 57 nM and 10 nM.
On to `Cc1cccc(-c2nc([C@@H]3CCCN3C(=O)c3cc(Cl)ccc3-n3nccn3)no2)c1C` [compound 394], for which the values for the IC50 on orexin-1 and at human orexin-2 receptor (setting [2]) were 134 nM and 12 nM, respectively.
In the case of `CCc1ccccc1-c1nc([C@@H]2CCCN2C(=O)c2cc(Cl)ccc2-n2nccn2)no1` [compound 395], the IC50 at orexin-1 came out at 31 nM; on human orexin-2 receptor it was 10 nM.
On the same counts, the results for `Cc1ccc(C)c(-c2nc([C@@H]3CCCN3C(=O)c3cc(Cl)ccc3-n3nccn3)no2)c1` [compound 396] are 134 nM and 15 nM.
`Cc1cccc(-c2nc([C@@H]3CCCN3C(=O)c3ccc(Cl)cc3-n3nccn3)no2)c1C` [compound 397]: the IC50 at orexin-1 was 85 nM; at human orexin-2 receptor (setting [2]) it was 5 nM.
On the same counts, the results for `CCc1ccccc1-c1nc([C@@H]2CCCN2C(=O)c2ccc(Cl)cc2-n2nccn2)no1` [compound 398] are 33 nM and 18 nM.
The corresponding values for `Cc1ccc(C)c(-c2nc([C@@H]3CCCN3C(=O)c3ccc(Cl)cc3-n3nccn3)no2)c1` [compound 399] are 77 nM and 10 nM.
As for `Cc1cc(C(=O)N2CCC[C@H]2c2noc(-c3cccc(C)c3C)n2)c(-n2nccn2)cc1C` [compound 400, {(S)-2-[5-(2,3-Dimethyl-phenyl)-[1,2,4]oxadiazol-3-yl]-pyrrolidin-1-yl}-(4,5-dimethyl-2-[1,2,3]triazol-2-yl-phenyl)-methanone], the IC50 at orexin-1 (setting [1]) stood at 36 nM; on human orexin-2 receptor (setting [2]), 4 nM.
The corresponding values for `CCc1ccccc1-c1nc([C@@H]2CCCN2C(=O)c2cc(C)c(C)cc2-n2nccn2)no1` [compound 401, (4,5-Dimethyl-2-[1,2,3]triazol-2-yl-phenyl)-{(S)-2-[5-(2-ethyl-phenyl)-[1,2,4]oxadiazol-3-yl]-pyrrolidin-1-yl}-methanone] are 7 nM and 3 nM.
The corresponding values for `Cc1ccc(C)c(-c2nc([C@@H]3CCCN3C(=O)c3cc(C)c(C)cc3-n3nccn3)no2)c1` [compound 402, {(S)-2-[5-(2,5-Dimethyl-phenyl)-[1,2,4]oxadiazol-3-yl]-pyrrolidin-1-yl}-(4,5-dimethyl-2-[1,2,3]triazol-2-yl-phenyl)-methanone] are 164 nM and 2 nM.
On the same counts, the results for `COc1cc(C(=O)N2CCC[C@H]2c2noc(-c3cccc(C)c3C)n2)c(-n2nccn2)cc1C` [compound 403, {(S)-2-[5-(2,3-Dimethyl-phenyl)-[1,2,4]oxadiazol-3-yl]-pyrrolidin-1-yl}-(5-methoxy-4-methyl-2-[1,2,3]triazol-2-yl-phenyl)-methanone] are 25 nM and 2 nM.
As to `CCc1ccccc1-c1nc([C@@H]2CCCN2C(=O)c2cc(OC)c(C)cc2-n2nccn2)no1` [compound 404, {(S)-2-[5-(2-Ethyl-phenyl)-[1,2,4]oxadiazol-3-yl]-pyrrolidin-1-yl}-(5-methoxy-4-methyl-2-[1,2,3]triazol-2-yl-phenyl)-methanone], the IC50 on orexin-1 (setting [1]) was determined as 23 nM; at human orexin-2 receptor (setting [2]), 3 nM.
On the same counts, the results for `COc1cc(C(=O)N2CCC[C@H]2c2noc(-c3cc(C)ccc3C)n2)c(-n2nccn2)cc1C` [compound 405, {(S)-2-[5-(2,5-Dimethyl-phenyl)-[1,2,4]oxadiazol-3-yl]-pyrrolidin-1-yl}-(5-methoxy-4-methyl-2-[1,2,3]triazol-2-yl-phenyl)-methanone] are 33 nM and 1 nM.
The corresponding values for `COc1cc(C(=O)N2CCC[C@H]2c2noc(-c3cccc(C)c3C)n2)c(-n2nccn2)cc1Cl` [compound 406] are 22 nM and 2 nM.
On the same counts, the results for `CCc1ccccc1-c1nc([C@@H]2CCCN2C(=O)c2cc(OC)c(Cl)cc2-n2nccn2)no1` [compound 407] are 15 nM and 3 nM.
`COc1cc(C(=O)N2CCC[C@H]2c2noc(-c3cc(C)ccc3C)n2)c(-n2nccn2)cc1Cl` [compound 408]: the IC50 amounted to 31 nM at orexin-1 (setting [1]) and 2 nM on human orexin-2 receptor (setting [2]).
